Results as given in the supplement of paper PMC10307832.

What was measured:
Assay in all cases: relative viability (nuclei count vs DMSO), 5 days (fraction); higher = more cells survive
[1] = test system: LOU-NH91
Outline: (§1)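 Lung cancer cell lines were pin-tool dosed in 1536-well plates on the day after seeding, with either a lone drug or a fixed anchor-drug dose plus five library-drug doses (not always all listed) in √10 steps. Nuclei were counted on 4× images after 5 days. Relative viability is the ratio of treated-well to vehicle-well nuclei counts, with each value a median of duplicate plates.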

[2] = test system: HOP-62
Outline: as §1

[3] = test system: BEN
Outline: as §1

[4] = test system: NCI-H647
Outline: as §1

[5] = test system: NCI-H1993
Outline: as §1

[6] = test system: NCI-H1437
Outline: as §1

[7] = test system: NCI-H441
Outline: as §1

[8] = test system: PC-14
Outline: as §1

[9] = test system: NCI-H1666
Outline: as §1

[10] = test system: NCI-H1355
Outline: as §1

[11] = test system: ChaGo-K-1
Outline: as §1

[12] = test system: NCI-H661
Outline: as §1

[13] = test system: LCLC-103H
Outline: as §1

[14] = test system: NCI-H2126
Outline: as §1

[15] = test system: EKVX
Outline: as §1

[16] = test system: LXF-289
Outline: as §1

[17] = test system: NCI-H727
Outline: as §1

[18] = test system: RERF-LC-KJ
Outline: as §1

[19] = test system: HCC-827
Outline: as §1

## CN1CCN(CCOc2cc(OC3CCOCC3)c3c(Nc4c(Cl)ccc5c4OCO5)ncnc3c2)CC1 [Saracatinib] + CC(C)C[C@H](NC(=O)[C@H](Cc1ccccc1)NC(=O)c1cnccn1)B(O)O [Bortezomib] (partner 0.002 µM)
[1]; first compound 0.02 µM
  relative viability: 0.538
[1]; first compound 0.2 µM
  relative viability: 0.457
[1]; first compound 0.6325 µM
  relative viability: 0.521
[1]; first compound 2 µM
  relative viability: 0.533
[2]; first compound 0.02 µM
  relative viability: 0.715
[2]; first compound 0.2 µM
  relative viability: 0.718
[2]; first compound 0.6325 µM
  relative viability: 0.692
[2]; first compound 2 µM
  relative viability: 1.06
[3]; first compound 0.02 µM
  relative viability: 0.928
[3]; first compound 0.2 µM
  relative viability: 0.695
[3]; first compound 0.6325 µM
  relative viability: 0.889
[3]; first compound 2 µM
  relative viability: 0.573
[4]; first compound 0.02 µM
  relative viability: 0.993
[4]; first compound 0.2 µM
  relative viability: 0.677
[4]; first compound 0.6325 µM
  relative viability: 0.757
[4]; first compound 2 µM
  relative viability: 0.641
[5]; first compound 0.02 µM
  relative viability: 1.18
[5]; first compound 0.2 µM
  relative viability: 0.559
[5]; first compound 2 µM
  relative viability: 0.67
[6]; first compound 0.02 µM
  relative viability: 0.502
[6]; first compound 0.2 µM
  relative viability: 0.505
[6]; first compound 0.6325 µM
  relative viability: 0.437
[6]; first compound 2 µM
  relative viability: 0.453
[7]; first compound 0.02 µM
  relative viability: 0.451
[7]; first compound 0.2 µM
  relative viability: 0.562
[7]; first compound 0.6325 µM
  relative viability: 1.03
[7]; first compound 2 µM
  relative viability: 0.831
[8]; first compound 0.02 µM
  relative viability: 0.941
[8]; first compound 0.2 µM
  relative viability: 0.685
[8]; first compound 0.6325 µM
  relative viability: 0.261
[8]; first compound 2 µM
  relative viability: 0.169
[9]; first compound 0.02 µM
  relative viability: 0.898
[9]; first compound 0.2 µM
  relative viability: 0.978
[9]; first compound 0.6325 µM
  relative viability: 1.07
[9]; first compound 2 µM
  relative viability: 1.06
[10]; first compound 0.02 µM
  relative viability: 1.18
[10]; first compound 0.2 µM
  relative viability: 1.15
[10]; first compound 0.6325 µM
  relative viability: 1.44
[10]; first compound 2 µM
  relative viability: 1.17
[11]; first compound 0.02 µM
  relative viability: 1.1
[11]; first compound 0.2 µM
  relative viability: 0.866
[11]; first compound 0.6325 µM
  relative viability: 1.05
[11]; first compound 2 µM
  relative viability: 0.79
[12]; first compound 0.02 µM
  relative viability: 0.831
[12]; first compound 0.2 µM
  relative viability: 0.849
[12]; first compound 0.6325 µM
  relative viability: 0.837
[12]; first compound 2 µM
  relative viability: 0.373
[13]; first compound 0.02 µM
  relative viability: 1.21
[13]; first compound 0.2 µM
  relative viability: 0.963
[13]; first compound 0.6325 µM
  relative viability: 1.09
[13]; first compound 2 µM
  relative viability: 0.941
[14]; first compound 0.02 µM
  relative viability: 1.09
[14]; first compound 0.2 µM
  relative viability: 1.02
[14]; first compound 0.6325 µM
  relative viability: 1.11
[14]; first compound 2 µM
  relative viability: 0.996
[15]; first compound 0.02 µM
  relative viability: 0.961
[15]; first compound 0.2 µM
  relative viability: 0.861
[15]; first compound 0.6325 µM
  relative viability: 1.16
[15]; first compound 2 µM
  relative viability: 0.347
[16]; first compound 0.02 µM
  relative viability: 0.937
[16]; first compound 0.2 µM
  relative viability: 0.959
[16]; first compound 0.6325 µM
  relative viability: 0.966
[16]; first compound 2 µM
  relative viability: 0.987
[17]; first compound 0.02 µM
  relative viability: 0.923
[17]; first compound 0.2 µM
  relative viability: 0.535
[17]; first compound 0.6325 µM
  relative viability: 1.09
[17]; first compound 2 µM
  relative viability: 0.506
[18]; first compound 0.02 µM
  relative viability: 1.09
[18]; first compound 0.2 µM
  relative viability: 1.23
[18]; first compound 0.6325 µM
  relative viability: 0.993
[18]; first compound 2 µM
  relative viability: 0.942
[19]; first compound 0.02 µM
  relative viability: 0.965
[19]; first compound 0.2 µM
  relative viability: 0.963
[19]; first compound 0.6325 µM
  relative viability: 0.479
[19]; first compound 2 µM
  relative viability: 0.306
